Source: publication PMC7531004, “Discovery of gramicidin A analogues with altered activities by multidimensional screening of a one-bead-one-compound library” (Nature Communications, 2020)
Where a SMILES comes first, the peptide text is derived from it. [ ]: non-standard residue; d: D form. The star is where a group is joined. NHCH2CH2OH = OCCN*; For = O=C*

Experiments:
[1] = H+/Na+ transport assay of bead-derived peptides (one-point); type: biochemical; parameters: key: relative activity; mean of two control wells = 1.00; conditions: bead-derived peptide solution, EYPC/EYPG LUVs;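 also: relative to parent gramicidin A activity set to 1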
Method: (§1) Each type of assay must be simplified and miniaturized to assess the activities of the library peptides in a 96-well format for the high-throughput screening.
H+/Na+ transport assay of bead-derived peptides.1,2,3 Trisodium 8-hydroxypyrene-1,3,6-trisulfonate
mini-extruder apparatus (Avanti Polar Lipids).
28.9 µmol) in CHCl3 (225 µL) and egg yolk phosphatidylglycerol (1.20 mg, 1.56 µmol) in CHCl3 (60.0 µL)
The thin film was hydrated and
1.0 mM pyranine) by sonication.
A suspension of the LUVs was immediately
used for the H+/Na+ transport assay.
The diluted solution of peptide
flat-bottom 96-well plate (655086, Greiner bio-one).
was vortexed at room temperature for 30 min.
(5/95, 3.0 µL) and the LUV suspension were mixed in each plate to determine 100% lysis. The untreated
LUV suspension was used to determine 0% lysis.
normalized against 100% lysis by Triton X-100 (Imax) and 0% lysis (I0) as following, where Ix is the
fluorescence intensity (Supplementary Equation 2).
I = 100 × (Ix – I0) / (Imax – I0) (2)
The mean value of the two control wells was set to 1.00. […]

[2] = tested on: Streptococcus pyogenes SSI-9; assay: Antibacterial activity assay of bead-derived peptides (three concentrations); type: cell-based; parameters: key: +++: inhibition by the 640-fold diluted peptide solution; ++: inhibition by the 160-fold diluted solution; +: inhibition by the 40-fold diluted solution; -: no inhibition; conditions: S. pyogenes, bead-derived peptide solution, three concentrations
Method: as §1
Next, the peptides in groups A and B were subjected to the antibacterial assay and structural determination. Three peptide concentrations were applied to evaluate the growth inhibition of S. pyogenes and determine the antibacterial activity. […] Finally, the structures of the peptides were determined. […]
Antibacterial activity assay of bead-derived peptides. The stock solution of the peptide library was 4- and […]
16-fold diluted with DMSO. The non-diluted stock solution, 4-fold diluted solution, and 16-fold diluted […]
solution were transferred to the 96-well round-bottom plate (3367, Corning, 1.0 µL/well). To the solution of […]
peptide in each well was added a suspension of Streptococcus pyogenes SSI-9 strain in cation adjusted […]
Mueller Hinton Broth [40.0 µL, 2 × 10^5 colony forming units (CFU), 21 g/L Mueller Hinton Broth (Difco), 50 […]
mg/L Ca2+ (adjusted with CaCl2•2H2O), and 25 mg/L Mg2+ (adjusted with MgCl2•6H2O)] supplemented with […]
5% laked horse blood (Nippon Biotest Laboratories). The plate was incubated at 37 °C for 18 h, and the precipitation of the grown cells was examined. […]

[3] = tested on: P388 mouse leukemia cells; conditions: 92 h
Description: Each type of assay must be simplified and miniaturized to assess the activities of the library peptides in a 96-well format for the high-throughput screening. […]
Mammalian cytotoxicity assay of bead-derived peptides . P388 cells were obtained from Institute of
Development Aging and Cancer (Tohoku University). The cells were maintained with growth medium
[RPMI1640 with phenol red ( Fujifilm Wako Pure Chemical) supplemented with 10% heat -inactivated fetal
bovine serum, pe nicillin G (100 units/mL), and streptomycin (100 µg/mL)] under atmosphere of 5% CO 2 at
The collected cells were resuspended into
the growth medium at 2 × 10^4 cells/mL. The stock solutions of the peptide library were 250-fold diluted
with the growth medium. Aliquots of the medium (100 µL) containing peptides and the latter medium
containing P388 cells (100 µL) were mixed in a 96-well cell culture plate (TR5003, TrueLine). The final
concentration of P388 cells was 1 × 10^4 cells/mL. After incubation under atmosphere of 5% CO2 at 37 °C
for 92 h, the numbers of viable cells were determined by
2-(4-iodophenyl)-3-(4-nitrophenyl)-5-(2,4-disulfophenyl)-2H-tetrazolium, monosodium salt (WST-1) assay.
A solution of 1-methoxy-5-methylphenazinium methyl sulfate (1-methoxy PMS) and WST-1 in the growth
medium (1-methoxy PMS 0.70 mg/mL in Milli-Q/WST-1 3.6 mg/mL in pH 7.4 HEPES buffer = 1/9) was
added to each well of the plate (10.0 µL/well). The plate was incubated for 4 h under atmosphere of 5% CO2
at 37 °C. The absorbance of each well at 415 nm was measured using a Benchmark microplate reader
(Bio-Rad). The cytotoxicities were evaluated as cell viability (%). […]

Structure (SMILES)	H+/Na+ transport activity normalized against the value of 1 (1.00) [1]	antibacterial activity [2]	cell viability/% [3] [%]
CC(C)C[C@@H](NC(=O)[C@H](C)NC(=O)CNC(=O)[C@@H](NC=O)C(C)C)C(=O)N[C@@H](C)C(=O)N[C@@H](C(=O)N[C@H](C(=O)N[C@@H](C(=O)N[C@@H](Cc1c[nH]c2ccccc12)C(=O)N[C@H](CC(C)C)C(=O)N[C@@H](Cc1c[nH]c2ccccc12)C(=O)N[C@H](CC(C)C)C(=O)N[C@@H](Cc1c[nH]c2ccccc12)C(=O)N[C@H](CC(C)C)C(=O)N[C@@H](Cc1c[nH]c2ccccc12)C(=O)NCCO)[C@H](C)O)C(C)C)C(C)C [compound 6766] (For-VGA[dL]A[dV]V[dT]W[dL]W[dL]W[dL]W-NHCH2CH2OH)	1.07	+	100.0
CC(C)C[C@@H](NC(=O)[C@H](C)NC(=O)CNC(=O)[C@@H](NC=O)C(C)C)C(=O)N[C@@H](C)C(=O)N[C@@H](C(=O)N[C@H](C(=O)N[C@@H](C(=O)N[C@@H](Cc1c[nH]c2ccccc12)C(=O)N[C@@H](C(=O)N[C@@H](Cc1c[nH]c2ccccc12)C(=O)N[C@@H](C(=O)N[C@@H](Cc1c[nH]c2ccccc12)C(=O)N[C@H](CC(C)C)C(=O)N[C@@H](Cc1c[nH]c2ccccc12)C(=O)NCCO)C(C)C)C(C)C)[C@H](C)O)C(C)C)C(C)C [compound 809] (For-VGA[dL]A[dV]V[dT]W[dV]W[dV]W[dL]W-NHCH2CH2OH)	1.13	-	100.0
CC(C)C[C@@H](NC(=O)[C@H](Cc1c[nH]c2ccccc12)NC(=O)[C@H](NC(=O)[C@@H](NC(=O)[C@H](NC(=O)[C@H](C)NC(=O)[C@H](NC(=O)[C@H](C)NC(=O)CNC(=O)[C@@H](NC=O)C(C)C)C(C)C)C(C)C)C(C)C)[C@H](C)O)C(=O)N[C@@H](Cc1c[nH]c2ccccc12)C(=O)N[C@@H](C(=O)N[C@@H](Cc1c[nH]c2ccccc12)C(=O)N[C@@H](C(=O)N[C@@H](Cc1c[nH]c2ccccc12)C(=O)NCCO)C(C)C)C(C)C [compound 9910] (For-VGA[dV]A[dV]V[dT]W[dL]W[dV]W[dV]W-NHCH2CH2OH)	1.07	-	100.0
CC(C)C[C@@H](NC(=O)[C@H](C)NC(=O)CNC(=O)[C@@H](NC=O)C(C)C)C(=O)N[C@@H](C)C(=O)N[C@@H](C(=O)N[C@H](C(=O)N[C@@H](C(=O)N[C@@H](Cc1c[nH]c2ccccc12)C(=O)N[C@H](CC(C)C)C(=O)N[C@@H](Cc1c[nH]c2ccccc12)C(=O)N[C@H](CC(C)C)C(=O)N[C@@H](Cc1c[nH]c2ccccc12)C(=O)N[C@@H](C(=O)N[C@@H](Cc1c[nH]c2ccccc12)C(=O)NCCO)C(C)C)[C@H](C)O)C(C)C)C(C)C [compound 2235] (For-VGA[dL]A[dV]V[dT]W[dL]W[dL]W[dV]W-NHCH2CH2OH)	1.01	+	100.0
CC(C)C[C@@H](NC(=O)[C@H](C)NC(=O)CNC(=O)[C@@H](NC=O)C(C)C)C(=O)N[C@@H](C)C(=O)N[C@@H](C(=O)N[C@H](C(=O)N[C@H](CC(C)C)C(=O)N[C@@H](Cc1c[nH]c2ccccc12)C(=O)N[C@H](CC(C)C)C(=O)N[C@@H](Cc1c[nH]c2ccccc12)C(=O)N[C@H](CC(C)C)C(=O)N[C@@H](Cc1c[nH]c2ccccc12)C(=O)N[C@@H](C(=O)N[C@@H](Cc1c[nH]c2ccccc12)C(=O)NCCO)C(C)C)C(C)C)[C@H](C)O [compound 11302] (For-VGA[dL]A[dT]V[dL]W[dL]W[dL]W[dV]W-NHCH2CH2OH)	1.05	-	49.1
CC(C)C[C@@H](NC(=O)[C@H](C)NC(=O)[C@H](NC(=O)[C@H](C)NC(=O)CNC(=O)[C@@H](NC=O)C(C)C)C(C)C)C(=O)N[C@H](C(=O)N[C@@H](C(=O)N[C@@H](Cc1c[nH]c2ccccc12)C(=O)N[C@H](CC(C)C)C(=O)N[C@@H](Cc1c[nH]c2ccccc12)C(=O)N[C@@H](C(=O)N[C@@H](Cc1c[nH]c2ccccc12)C(=O)N[C@@H](C(=O)N[C@@H](Cc1c[nH]c2ccccc12)C(=O)NCCO)C(C)C)C(C)C)C(C)C)C(C)C [compound 6888] (For-VGA[dV]A[dL]V[dV]W[dL]W[dV]W[dV]W-NHCH2CH2OH)	1.23	+	78.6
CC(C)C[C@@H](NC(=O)[C@H](C)NC(=O)CNC(=O)[C@@H](NC=O)C(C)C)C(=O)N[C@@H](C)C(=O)N[C@@H](C(=O)N[C@H](C(=O)N[C@@H](C(=O)N[C@@H](Cc1c[nH]c2ccccc12)C(=O)N[C@@H](C(=O)N[C@@H](Cc1c[nH]c2ccccc12)C(=O)N[C@H](CC(C)C)C(=O)N[C@@H](Cc1c[nH]c2ccccc12)C(=O)N[C@@H](C(=O)N[C@@H](Cc1c[nH]c2ccccc12)C(=O)NCCO)C(C)C)C(C)C)C(C)C)C(C)C)[C@H](C)O [compound 3364] (For-VGA[dL]A[dT]V[dV]W[dV]W[dL]W[dV]W-NHCH2CH2OH)	1.09	-	100.0
CC(C)C[C@@H](NC(=O)[C@H](Cc1c[nH]c2ccccc12)NC(=O)[C@H](NC(=O)[C@H](Cc1c[nH]c2ccccc12)NC(=O)[C@@H](CC(C)C)NC(=O)[C@H](Cc1c[nH]c2ccccc12)NC(=O)[C@@H](CC(C)C)NC(=O)[C@@H](NC(=O)[C@H](NC(=O)[C@H](C)NC(=O)[C@H](NC(=O)[C@H](C)NC(=O)CNC(=O)[C@@H](NC=O)C(C)C)C(C)C)C(C)C)C(C)C)[C@H](C)O)C(=O)N[C@@H](Cc1c[nH]c2ccccc12)C(=O)NCCO [compound 1251] (For-VGA[dV]A[dV]V[dL]W[dL]W[dT]W[dL]W-NHCH2CH2OH)	1.00	+	52.9
CNC(=O)C[C@@H](NC(=O)[C@@H](NC(=O)[C@H](NC(=O)[C@H](C)NC(=O)[C@H](NC(=O)[C@H](C)NC(=O)CNC(=O)[C@@H](NC=O)C(C)C)C(C)C)C(C)C)C(C)C)C(=O)N[C@@H](Cc1c[nH]c2ccccc12)C(=O)N[C@H](CC(C)C)C(=O)N[C@@H](Cc1c[nH]c2ccccc12)C(=O)N[C@@H](C(=O)N[C@@H](Cc1c[nH]c2ccccc12)C(=O)N[C@@H](C(=O)N[C@@H](Cc1c[nH]c2ccccc12)C(=O)NCCO)C(C)C)C(C)C [compound 8057] (For-VGA[dV]A[dV]V[dD](NHMe)W[dL]W[dV]W[dV]W-NHCH2CH2OH)	1.13	-	100.0
CC(C)C[C@@H](NC(=O)[C@H](C)NC(=O)CNC(=O)[C@@H](NC=O)C(C)C)C(=O)N[C@@H](C)C(=O)N[C@@H](C(=O)N[C@H](C(=O)N[C@@H](C(=O)N[C@@H](Cc1c[nH]c2ccccc12)C(=O)N[C@H](CC(C)C)C(=O)N[C@@H](Cc1c[nH]c2ccccc12)C(=O)N[C@H](CC(C)C)C(=O)N[C@@H](Cc1c[nH]c2ccccc12)C(=O)N[C@H](CC(C)C)C(=O)N[C@@H](Cc1c[nH]c2ccccc12)C(=O)NCCO)[C@H](C)O)C(C)C)C(C)C [compound 2172] (For-VGA[dL]A[dV]V[dT]W[dL]W[dL]W[dL]W-NHCH2CH2OH)	1.22	+	100.0
